Here are results for seven compounds from DBAASP.

Among the test systems are Candida albicans SC5314; Candida krusei IFN 5462; Staphylococcus aureus; Yersinia pestis KIM pYV; Klebsiella pneumoniae; Serratia marcescens; Escherichia coli O157:H7.
Assay in all cases: ≥ marks a high value that may be exact or a test limit, other limits are often not marked, values filed in µg/mL are converted to µM
The test system of assay [1] is Bacillus thuringiensis serovar israelensis.
In assay [2] the test system is Candida glabrata ATCC 2001.
Assay [3] concerns Escherichia coli D31 CGSC 5165.
The subject of assay [4] is Escherichia coli DH5alpha.
The subject of assay [5] is Candida glabrata IFM 46861.
Assay [6] has as its system Candida tropicalis IFM 46862.
Assay [7] relates to Candida albicans ATCC 90028.
Assay [8] deals with Candida albicans CIB 45437.
The subject of assay [9] is Escherichia coli ATCC 25922.
Assay [10] concerns Escherichia coli CIB 84492.
For assay [11], the system named is Staphylococcus aureus ATCC 25923.
The test system of assay [12] is Staphylococcus aureus CIB 85462.
The test system of assay [13] is Staphylococcus aureus NCTC 8325.
For assay [14], the system named is Acinetobacter baumannii ATCC 19606.
Assay [15] has as its system Bordetella bronchiseptica CUN 11844-99.
Assay [16] has as its system Brucella abortus 9.49 (per-).
The test system of assay [17] is Escherichia coli ATCC 23716.
Assay [18] deals with Pseudomonas aeruginosa CUN 4158-02.
Assay [19] concerns Staphylococcus aureus ATCC 43300.
The subject of assay [20] is Staphylococcus aureus SA113.
Assay [21] has as its system Staphylococcus aureus ΔmprFpRBsyn.
Assay [22] has as its system Staphylococcus aureus ΔmprF.
The subject of assay [23] is Ureaplasma urealyticum strain 1.
Assay [24] relates to Ureaplasma urealyticum strain 2.
The subject of assay [25] is Candida albicans ATCC 10261.
Assay [26] has as its system Pseudomonas aeruginosa ATCC 27853.
Assay [27] concerns Yersinia enterocolitica O:9 96-C.
Assay [28] deals with Staphylococcus aureus 1056.

One may read the MIC as the lowest concentration that inhibits growth of the organism. Low readings indicate greater potency, high ones weaker potency.

≈ marks a conversion by molar mass, not a printed value. Where “and” joins values, the source holds several entries; their conditions need not be identical. Identical values can stand only once.

Regarding `CC[C@H](C)[C@H](NC(=O)[C@H](Cc1ccccc1)NC(=O)[C@H](CCCCN)NC(=O)[C@H](C)NC(=O)[C@@H](NC(=O)[C@H](CO)NC(=O)[C@H](CCCCN)NC(=O)[C@H](CCSC)NC(=O)[C@@H](NC(=O)[C@H](CCCCN)NC(=O)[C@H](Cc1ccccc1)NC(=O)[C@H](Cc1c[nH]c2ccccc12)NC(=O)[C@H](CCCCN)NC(=O)[C@@H](NC(=O)[C@@H](N)CCCCN)[C@@H](C)CC)[C@@H](C)O)[C@@H](C)CC)C(=O)N[C@@H](C)C(=O)N[C@@H](CCCCN)C(=O)N[C@@H](CCC(=O)O)C(=O)N[C@@H](CCC(N)=O)C(=O)N[C@@H](CCSC)C(=O)N[C@@H](CCCCN)C(=O)N[C@@H](CCCCN)C(=O)N[C@@H](Cc1cnc[nH]1)C(=O)N[C@@H](CC(C)C)C(=O)NCC(=O)NCC(=O)N[C@@H](CCC(=O)O)C(=O)O` [KIKWFKTMKSIAKFIAKEQMKKHLGGE], the minimum inhibitory concentration (MIC) in assay [1] was 24.5 µM (≈ 78.6 µg/mL); in assay [2], ≥ 122 µM; in [3] it was 10 µM (≈ 32.1 µg/mL); in [4], ≥ 40 µM.
Regarding `CC(C)[C@H](N)C(=O)N[C@@H](CO)C(=O)N[C@@H](CCCN=C(N)N)C(=O)N[C@@H](CCCN=C(N)N)C(=O)N[C@@H](CCCN=C(N)N)C(=O)N[C@@H](CCCN=C(N)N)C(=O)N[C@@H](CCCN=C(N)N)C(=O)N[C@@H](CCCN=C(N)N)C(=O)NCC(=O)NCC(=O)N[C@@H](CCCN=C(N)N)C(=O)N[C@@H](CCCN=C(N)N)C(=O)N[C@@H](CCCN=C(N)N)C(=O)N[C@@H](CCCN=C(N)N)C(=O)O` [VSRRRRRRGGRRRR], the MIC in the assay with Candida albicans SC5314 was 1.6 µM and 2.5 µM; in [5] it was 2.5 µM (≈ 4.7 µg/mL); against Candida krusei IFN 5462 it was 2.5 µM (≈ 4.7 µg/mL); in assay [6] it was 2.5 µM (≈ 4.7 µg/mL).
On to `CC(C)C[C@H](NC(=O)CN)C(=O)N[C@@H](CC(C)C)C(=O)N[C@@H](CC(=O)O)C(=O)N[C@H](C(=O)N[C@@H](Cc1ccccc1)C(=O)N[C@@H](CCCCN)C(=O)N[C@@H](CC(N)=O)C(=O)N[C@@H](CC(C)C)C(=O)N[C@@H](C)C(=O)N[C@@H](CC(C)C)C(=O)N[C@@H](CC(N)=O)C(=O)N[C@@H](C)C(=O)N[C@@H](C)C(=O)N[C@@H](CCCCN)C(=O)N[C@@H](CO)C(=O)N[C@@H](C)C(=O)NCC(=O)N[C@H](C(=O)N[C@@H](CO)C(=O)N[C@H](C(=O)N[C@@H](CC(C)C)C(=O)N[C@@H](CC(N)=O)C(=O)N[C@@H](CO)C(=O)N[C@@H](CC(C)C)C(=O)N[C@@H](CO)C(=O)N[C@H]1CSSC[C@@H](C(=O)O)NC(=O)[C@H]([C@@H](C)O)NC(=O)[C@H](CCCCN)NC(=O)[C@H](CO)NC(=O)[C@H](CC(C)C)NC(=O)[C@H](CCCCN)NC1=O)C(C)C)C(C)C)[C@@H](C)O` [GLLDTFKNLALNAAKSAGVSVLNSLSCKLSKTC], for which the MIC in [7] was ≥ 100 µM; in assay [8], 19 µM (≈ 64 µg/mL); in assay [9], 12.5 µM (≈ 42.1 µg/mL); in assay [10], ≥ 38 µM; in [11], 19 µM (≈ 64 µg/mL); in assay [12] it was 19 µM (≈ 64 µg/mL). Further, the MIC in assay [13] was ≥ 50 µM.
Take `CC[C@H](C)[C@H](NC(=O)[C@H](CCCN=C(N)N)NC(=O)[C@H](CCCCN)NC(=O)[C@H](CO)NC(=O)[C@@H](NC(=O)[C@@H](N)CCCCN)[C@@H](C)CC)C(=O)N[C@@H](CC(C)C)C(=O)N[C@H](C(=O)NCC(=O)N[C@@H](CCCCN)C(=O)N[C@@H](CCCCN)C(N)=O)[C@@H](C)O` [KISKRILTGKK]: the minimal inhibitory concentration (MIC) was > 201 µM in assay [14]; ≥ 201 µM in assay [15]; ≥ 201 µM in assay [16]; ≥ 201 µM in [17]; > 201 µM in assay [9]; ≥ 201 µM in assay [18]. Moreover, the MIC in [19] was > 201 µM; in assay [20], ≥ 201 µM; in assay [21] it was ≥ 201 µM; in assay [22], ≥ 201 µM; with Staphylococcus aureus it was > 201 µM; with Yersinia pestis KIM pYV it was ≥ 201 µM.
On to `CC[C@H](C)[C@H](NC(=O)[C@H](CCSC)NC(=O)[C@H](CC(=O)O)NC(=O)[C@@H](NC(=O)[C@H](CCSC)NC(=O)[C@H](Cc1ccccc1)NC(=O)[C@H](CC(N)=O)NC(=O)[C@H](Cc1ccccc1)NC(=O)CNC(=O)[C@H](CCCCN)NC(=O)[C@H](CC(N)=O)NC(=O)[C@H](CO)NC(=O)[C@@H](N)CCCN=C(N)N)C(C)C)C(=O)N[C@@H](CCC(N)=O)C(=O)N[C@@H](C)C(=O)N[C@@H](CC(C)C)C(=O)N[C@@H](CO)C(=O)N[C@@H](CCCCN)C(N)=O` [RSNKGFNFMVDMIQALSK], for which the MIC in [23] and in [24] was ≥ 46 µM throughout.
As for `CC[C@H](C)[C@H](NC(=O)[C@H](C)NC(=O)[C@@H](NC(=O)[C@H](Cc1cnc[nH]1)NC(=O)[C@@H]1CCCN1C(=O)[C@H](CC(C)C)NC(=O)[C@@H](NC(=O)[C@H](C)NC(=O)[C@H](CCCN=C(N)N)NC(=O)CNC(=O)[C@@H](NC(=O)[C@H](CCCN=C(N)N)NC(=O)[C@H](C)NC(=O)[C@@H](NC(=O)[C@@H](NC(=O)[C@H](CCCN=C(N)N)NC(=O)[C@@H](NC(=O)[C@H](C)NC(=O)[C@H](CO)NC(=O)[C@H](CCCN=C(N)N)NC(=O)[C@H](CC(C)C)NC(=O)[C@H](C)N)C(C)C)[C@@H](C)O)C(C)C)C(C)C)C(C)C)C(C)C)C(N)=O` [ALRSAVRTVARVGRAVLPHVAI], the MIC was 6.3 µM and 3.1 µM in [25]; 6.3 µM and 3.1 µM against Candida albicans SC5314; > 25 µM and 12.5 µM against Klebsiella pneumoniae; 12.5 µM and 6.3 µM in [26]; 25 µM (≈ 57.8 µg/mL) against Serratia marcescens; 3.1 µM and 1.6 µM in assay [27].
Take `CC[C@H](C)[C@H](N)C(=O)N1CCC[C@H]1C(=O)N[C@@H](CCCN=C(N)N)C(=O)N1CCC[C@H]1C(=O)N[C@@H](CC(C)C)C(=O)N[C@@H](CC(=O)O)C(=O)N1CCC[C@H]1C(=O)N[C@H]1CSSC[C@@H]2NC(=O)[C@H](CO)NC(=O)[C@H](CCCCN)NC(=O)CNC(=O)[C@H](CC(N)=O)NC(=O)[C@H](CCCN=C(N)N)NC(=O)[C@@H]3CSSC[C@H](NC(=O)[C@H](CCCN=C(N)N)NC(=O)CNC(=O)[C@H](CC(N)=O)NC(=O)[C@H](CCC(N)=O)NC(=O)[C@H](C)NC(=O)[C@H]([C@@H](C)CC)NC1=O)C(=O)N[C@@H](Cc1ccccc1)C(=O)N[C@@H]([C@@H](C)O)C(=O)NCC(=O)N[C@@H]([C@@H](C)CC)C(=O)N[C@@H](CSSC[C@@H](C(=O)N[C@@H](CCCN=C(N)N)C(=O)N[C@@H](CCCN=C(N)N)C(=O)N[C@@H](CCCN=C(N)N)C(=O)O)NC2=O)C(=O)N[C@@H](CCCN=C(N)N)C(=O)N[C@@H](Cc1ccc(O)cc1)C(=O)N1CCC[C@H]1C(=O)N[C@@H](Cc1ccc(O)cc1)C(=O)N[C@@H](Cc1ccccc1)C(=O)N[C@@H](Cc1c[nH]c2ccccc12)C(=O)N[C@@H]([C@@H](C)CC)C(=O)NCC(=O)N[C@@H]([C@@H](C)O)C(=O)N3` [IPRPLDPCIAQNGRCFTGICRYPYFWIGTCRNGKSCCRRR]: the minimal inhibitory concentration (MIC) against Escherichia coli O157:H7 worked out at 0.515 µM (≈ 2.41 µg/mL); in assay [28], 0.594 µM (≈ 2.78 µg/mL).
